Data from patent US20220362299A1, “ENGINEERED NATURAL KILLER CELLS AND METHODS FOR USING THE SAME IN IMMUNOTHERAPY AND AUTOPHAGY INHIBITON TECHNIQUES” (Purdue Research Foundation, priority 2019, published 2022).
Like-named read-outs stand apart in the source and are kept apart here.

Columns and labels:
[1] = tested on: GBM43 cells; assay: Surface expression of NKG2DL, CD73 and GD2 on GBM43 cells after CQ (flow cytometry); format: cell-based, human; conditions: 24 h
Experimental: In addition to the increase in NK cell intratumoral infiltration, NK2G2DL expression (MFI and percentage) on GBM43 cells after 24 hours of treatment with various concentrations of CQ was evaluated.

[2] = tested on: GBM; conditions: chronic administration, controlled randomized trial / Phase III, diphosphate salt, cited from earlier work
[3] = tested on: CD73; assay: CD73 activity of GBM43 cells (AMP hydrolysis, malachite green phosphate assay); format: cell-based, human; conditions: various concentrations of CQ, 24 h
Experimental: To test for CD73 activity and its ability to generate adenosine, GBM43 cells were seeded at 2×10^4 cells per well in a 96-well plate in complete DMEM. After overnight incubation, GBM43 cells were incubated with anti-CD73 scFv following uPA (100 nM)-mediated cleavage from either CD73.mCAR-NK92 or CD73.mCAR-pNK cells during incubation for 6 hours. Then, the cell medium was removed and cells were rinsed three times with phosphate-free buffer (117 mM NaCl, 5.3 mM KCl, 1.8 mM MgCl2, 26 mM NaHCO3, 10 mM glucose, pH 7.4, diluted in ddH2O). AMP (250 μM final), diluted in phosphate-free buffer, was added and incubated for 10 min at 37° C. Finally, the phosphate (Pi) concentrations resulting from AMP hydrolysis were measured using a malachite green phosphate assay kit following the manufacturer's instructions.

[4] = tested on: GBM43 cells; assay: Killing of CQ-treated GBM43 cells by pNK cells; format: cell-based, human; conditions: E/T ratio 5, 4 h
Experimental: GBM43 cells were first treated with CQ (varying concentrations), then collected and re-seeded into 96 wells. After overnight culture, the NK cells (NK92 control cells and pNK cells against BECN1^−GBM43) were added at an E/T ratio of 5 and co-incubated for 4 h.
To further investigate the impact of the inhibition of autophagy on the cytotoxic capacity of NK cells, CQ-treated GBM43 cells or BECN1^− GBM43 cells were incubated with pNK cells for 4 h at an E/T ratio of 5.

[5] = tested on: GBM43 cells; assay: Chemokine mRNA in GBM43 cells by RT-PCR; format: cell-based, human; conditions: vs control
Experimental: Total RNAs were extracted using the mirVana™ miRNA Isolation Kit and the concentrations determined with a Qubit 4 Fluorometer. The RNA (80 ng) from each sample was reverse-transcribed using the qScript™ One-Step SYBR® Green qRT-PCR kit in a ViiA-7 RT-PCR system (Thermo Fisher Scientific, Waltham, Mass.). The GAPDH gene was used as the endogenous control. The comparative Ct values of genes of interest were normalized to the Ct value of GAPDH. The 2^−Δct method was used to determine the relative expression of the genes, while the 2^−ΔΔct method was used to calculate fold changes of gene expression over control.

In the case of Chloroquine diphosphate salt [CQ], the “expression of CD73 (MFI) on GBM43 cells” value ([1]; CQ 6.25 μM) is reported as ~70 % of control, the “expression of GD2 (MFI) on GBM43 cells” value ([1]; CQ 50 μM or higher) is reported as “decreased” and the “NKG2DL expression (% and MFI) on GBM43 cells” value ([1]; CQ at various concentrations) is reported as “increased significantly”. The “percentage expression (%) of GD2 on GBM43 cells” value ([1]; CQ up to 100 μM then constant, control cells ~58%) was roughly 46%, the “response of GBM to antineoplastic therapy with added chloroquine” value [2] was “enhance clinical responses” and the “response of GBM to antineoplastic therapy with added chloroquine” value ([2]; listed as chloroquine (CQ)) was “significantly enhanced response”. The “production of adenosine in GBM cells mediated by CD73” value [3] was “significantly reduced”, the “killing of CQ-treated GBM43 cells by human NK cells” value [4] was “sensitize GBM cells to superior killing” and the “CCL5 mRNA in GBM43 cells” value ([5]; CQ-treated) was “substantial upregulation”. The “CXCL10 mRNA in GBM43 cells” value ([5]; CQ-treated) was “substantial upregulation”, the “CCL2 mRNA in GBM43 cells” value ([5]; inhibition of autophagy) was “decreased transcriptional levels” and the “CXCL12 mRNA in GBM43 cells” value ([5]; inhibition of autophagy) was “decreased transcriptional levels”.
